Experiment: in vitro
Conditions: human, hela cells, % viability

Compound | viability at 28.5 h, 10 µM [%] | viability at 28.5 h, 10 µM (bulk resorufin, single well) [%]
CC(C)(CC(=O)O)CC(=O)N1CCCC1c1nc(-c2ccccc2)c2ccccn12 (centres unmarked) [CBK046399] | 98.8 | –
COCCc1nc(C2CCC2)n(Cc2ccccc2C)n1 [CBK307238] | 91.8 | –
COc1ccc2occ(C(=O)c3ccc(N)cc3)c2c1 [CBK111303] | 81.8 | –
O=c1ccn([C@@H]2O[C@H](CO)[C@H](O)C2O)c(=O)[nH]1 (some centres unmarked) [CBK201159] | 95.1 | –
O=C(O)c1ccc(C2(c3ccc(C(=O)O)cc3)OC(=O)c3ccccc32)cc1 [CBK261150] | 98.2 | –
C=CCn1c(S)nnc1COc1cccc2ccccc12 [CBK267292] | 89.4 | –
O=C(N[C@@H](Cn1cc(Cl)c(=O)[nH]c1=O)C(=O)O)c1cccc(F)c1 [CBK289650] | 118 | –
Oc1cccc(OCCOc2nc3ccccc3nc2N2CCCC2)c1 [CBK115901] | 84.1 | –
O=c1c2cc(Br)cc(F)c2ncn1CCC1CCCO1 (centres unmarked) [CBK306451] | 95.9 | –
OCc1cccc2c3c(n(Cc4ccccc4)c12)CCCC3 [CBK004693] | 91.3 | –
CN(C(=O)NC1CCCc2c1cnn2CCO)c1ccccc1F (centres unmarked) [CBK304024] | 109 | –
CCN(Cc1ccccc1)[C@@H](CO)Cc1ccc(OC)cc1 [CBK073856T] | 89.6 | –
Cc1ccc(CCNc2c([N+](=O)[O-])nn(-c3ccc4c(c3)OCCO4)[n+]2[O-])cc1 [CBK268225] | 103 | –
O=C(O)c1sccc1S(=O)(=O)NCc1ccc(Cn2cccn2)cc1 [CBK296707] | 99.4 | –
Cc1nn(C)cc1CN(Cc1cccc(F)c1)CC1CCCO1 (centres unmarked) [CBK283013] | 100 | –
Cc1ccc2c(CC(=O)N(C)CCN3CCCCC3)coc2c1 [CBK282747] | 80.5 | –
NNC(=O)CCc1nc2ccc(O)cc2[nH]1 [CBK263633] | 93 | –
N#C/C(=C\c1ccc(Oc2ccc(C(F)(F)F)cc2[N+](=O)[O-])cc1)c1nc2ccccc2[nH]1 [CBK263878] | 92.4 | –
Cc1cc(C(=O)N2CCCCCC2c2c(Cl)cnn2C)on1 (centres unmarked) [CBK284916] | 99.3 | –
C#CCN(C1CCc2ccccc21)S(=O)(=O)c1cc(C(=O)NC)n(C)c1 (centres unmarked) [CBK306235] | 91.8 | –
CN(C)S(=O)(=O)c1cccc(C(=O)N(Cc2ccc(F)cc2)Cc2ccco2)c1 [CBK267579] | 88.8 | –
Cc1c(C(=O)NCc2cc(C3CC3)[nH]n2)[nH]c2c(Cl)cccc12 [CBK282533] | 70.2 | –

Compound | viability at 28.5 h, 10 µM [%] | viability at 28.5 h, 10 µM (bulk resorufin, single well) [%]
COc1cccc(CN2CCCC[C@H]3CN(C(C)=O)C[C@H]32)c1 [CBK285510] | 107 | –
O=C(Nc1ccc2ncccc2c1)c1ccc(F)cc1Cl [CBK159796] | 91.1 | –
O=C(c1ccc2ncccc2c1)N1CCN(C(=O)c2ccco2)CC1 [CBK144461] | 94 | –
COc1cc(C(=O)NC/C=N/O)cc(OC)c1OC [CBK015662] | 90 | –
C#CCNC(=O)C1CCN(c2nc3ccccc3n2CC=C)CC1 [CBK283925] | 95.4 | –
COc1ccccc1CNCC1CCN(C(=O)OC(C)(C)C)CC1 [CBK056710] | 96.4 | –
O=C(O)CNS(=O)(=O)c1ccc(F)cc1 [CBK034464] | 122 | –
COc1ccc2c(c1)C(=O)NC1(CC2)CCN(Cc2ccccc2)C1 (centres unmarked) [CBK283343] | 95.2 | –
COc1ccc(Br)cc1S(=O)(=O)Nc1ccsc1C(=O)Nc1ccc(F)cc1 [CBK004593] | 97.7 | –
CC(C)(C)C(=O)N1CCC(n2nc(-c3ccco3)ccc2=O)CC1 [CBK282341] | 99.3 | –
O=C(CSc1nnc(-c2cccnc2)n1-c1ccc(Br)cc1)Nc1ccc2c(c1)OCCO2 [CBK266133] | 96.4 | –
COCCn1ccnc1C1CCN(C(=O)C(O)c2cccc(Cl)c2)CC1 (centres unmarked) [CBK306901] | 99.8 | –
O=c1[nH]c2c(-c3ccccc3)nnn2c2ccccc12 [CBK288047] | 98.3 | –
O=C(O)CCC(=O)NCC(=O)c1ccc(F)cc1 [CBK057384] | 76.6 | –
O=C(Cn1c(=O)n(Cc2cccs2)c2ncccc21)NC1CC1 [CBK283898] | 90.6 | –
FC(F)(F)c1ccnc(OC2CCNCC2)n1 [CBK113294] | 118 | –
COCCCNC(=O)COc1cc(C)ccc1C [CBK264625] | 88.4 | –
O=S(=O)(c1ccc(F)cc1)c1nc(-c2cccs2)oc1N1CCN(Cc2ccccc2)CC1 [CBK267672] | 89.7 | –
O=C(O)CCn1ncc2ccccc21 [CBK262257] | 89.8 | –
Cc1ccccc1C(=O)NC(=S)Nc1sc2c(c1C(N)=O)CCC2 [CBK262107] | 88.9 | –
CCn1nc(C)c(-c2cncn2CC(C)N2CCC(C)CC2)c1C (centres unmarked) [CBK281593] | 103 | –
Cc1nc[nH]c1CN(CCCn1ccnc1)Cc1ccccc1Cl [CBK282473] | 103 | –

Compound | viability at 28.5 h, 10 µM [%] | viability at 28.5 h, 10 µM (bulk resorufin, single well) [%]
O=C(Nc1cccc2[nH]ccc12)c1ccc(Br)cc1Cl [CBK159643] | 78.7 | –
COc1ccccc1N(CC(=O)NC(C(C)C)C(C)C)S(=O)(=O)c1ccccc1 [CBK101384] | 91.4 | –
Cc1nc(C2CN(Cc3cc4ccccc4nc3Cl)CCO2)no1 (centres unmarked) [CBK305381] | 96.5 | –
c1cc(-c2nccnc2Oc2ccc3c(c2)OCO3)ccn1 [CBK106726] | 92.4 | –
Cc1cccc(OCC(=O)Nc2ccc(S(=O)(=O)N3CCOCC3)cc2)c1 [CBK264110] | 94.6 | –
CCCNc1cncc(-c2cccc(O)c2)n1 [CBK065447] | 109 | –
COc1ccc2[nH]cc(CC(=O)N3CCCC4(CCN(Cc5ccccc5)C4)C3)c2c1 (centres unmarked) [CBK136883] | 93.5 | –
COc1ccc(OC(=O)Cc2ccccc2)cc1 [CBK131826] | – | 117
Cc1ccc(C2=NO[C@@](CC(=O)O)(C(=O)Nc3ccc4c(c3)OCCO4)C2)cc1 [CBK286653] | 85.1 | –
CCc1noc(C)c1C(=O)NCCN1CC(C)CC(C)C1 (centres unmarked) [CBK282081] | 113 | –
Cc1ccc(S(=O)(=O)NCCSc2nnc(Nc3ccccc3)s2)cc1 [CBK266345] | 106 | –
CCc1nc2ccc(C(=O)NC3CCN(C)CC3)cn2c1N(C)C=O [CBK146594] | 108 | –
Cc1ccccc1Nc1nc(N)nc(CN2CCCC2C(=O)N(C)C)n1 (centres unmarked) [CBK305638] | 81 | –
Cc1cccc(CN2CCC(N(C)Cc3nnc(C4CC4)n3C)C2)c1 (centres unmarked) [CBK305165] | 88.5 | –
CC(C)n1nccc1NC(=O)CCn1ccnc1-c1ccccc1 [CBK281536] | 88.3 | –
O=C(C1CN(S(=O)(=O)c2ccccc2)CCN1S(=O)(=O)c1ccccc1)N1CCCCC1 (centres unmarked) [CBK262686] | 86.4 | –
Clc1ccccc1OCCNC1CCc2[nH]c3ccccc3c2C1 (centres unmarked) [CBK107790] | 107 | –
CC(=O)c1ccc(-c2cnc3[nH]c(=O)n([C@@H](C)c4ccccc4)c3n2)s1 [CBK064360] | 98.3 | –
c1c(C2CC2)[nH]c2nc(N3CCCC3)nc(N3CCCC3)c12 [CBK016707G] | 113 | –
COc1cc(/C=C2/SC(=S)N(CC(=O)O)C2=O)cc(Br)c1OCc1ccccn1 [CBK265598] | 115 | –
O=C1NN(c2ccc(Br)cc2)C(=O)/C1=C\c1ccc(-c2ccc3c(c2)C(=O)NC3=O)o1 [CBK262968] | 111 | –
